Test results published in US20250230193A1, “CYCLIC COMPOUND HAVING SELECTIVE KRAS INHIBITORY EFFECT ON HRAS AND NRAS” (CHUGAI SEIYAKU KABUSHIKI KAISHA, priority 2022, published 2025).
Where a SMILES comes first, the peptide text is derived from it. Bridges are numbered along the chain shown (N, C = ends). [ ]: non-standard residue; d: D form. The star is where a group is joined. hPhe(3-Cl-4-CF3) = N[C@@H](CCc1ccc(C(F)(F)F)c(Cl)c1)C(=O)O; NPrPhe(4-CF3) = CCCN[C@@H](Cc1ccc(C(F)(F)F)cc1)C(=O)O; NPrPhe(4-Me) = CCCN[C@@H](Cc1ccc(C)cc1)C(=O)O; NMeGly(cPent) = CN[C@H](C(=O)O)C1CCCC1; Pro(4,4-F2) = O=C(O)[C@@H]1CC(F)(F)CN1; NMeD = CN[C@@H](CC(=O)O)C(=O)O; NMeL = CN[C@@H](CC(C)C)C(=O)O; Morpholide = C1CN(*)CCO1; Ac5c = NC1(C(=O)O)CCCC1; Aze = O=C(O)[C@@H]1CCN1; Ac4c = NC1(C(=O)O)CCC1; NEtG = CCNCC(=O)O; Sar = CNCC(=O)O

Columns and labels:
[1] = biological target: GDP-bound NRAS wild-type protein (Homo sapiens, UniProt P01111); experiment: Binding to NRAS by surface plasmon resonance (SPR), Single Cycle Kinetics
Chain of GDP-bound NRAS wild-type protein (P01111 whole entry): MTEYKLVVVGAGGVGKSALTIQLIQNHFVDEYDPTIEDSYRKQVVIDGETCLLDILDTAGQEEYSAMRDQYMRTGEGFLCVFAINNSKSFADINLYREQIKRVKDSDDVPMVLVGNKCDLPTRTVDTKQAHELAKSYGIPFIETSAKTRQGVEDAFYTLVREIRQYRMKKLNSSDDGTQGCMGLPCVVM

[2] = biological target: GDP-bound HRAS wild-type protein (Homo sapiens, UniProt P01112); experiment: Binding to HRAS by surface plasmon resonance (SPR), Single Cycle Kinetics
Chain of GDP-bound HRAS wild-type protein (P01112 whole entry): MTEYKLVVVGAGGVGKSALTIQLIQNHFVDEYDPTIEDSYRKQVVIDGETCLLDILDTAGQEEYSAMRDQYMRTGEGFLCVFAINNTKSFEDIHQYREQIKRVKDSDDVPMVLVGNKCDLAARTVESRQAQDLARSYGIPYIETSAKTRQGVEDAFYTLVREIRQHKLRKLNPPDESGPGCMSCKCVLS

[3] = KD ratio, GDP-bound NRAS wild-type vs GDP-bound KRAS wild-type, SPR
[4] = KD ratio, GDP-bound HRAS wild-type vs GDP-bound KRAS wild-type, SPR

SMILES: CCO[C@@H]1C[C@H]2C(=O)NC3(CC(C)(C)C3)C(=O)N(C)[C@@H](C3CCCC3)C(=O)N(C)[C@H](C(=O)N(C)CC)CC(=O)N(C)[C@@H](CC(C)C)C(=O)N[C@@H]([C@@H](C)CC)C(=O)N(C)CC(=O)N(C)[C@H]3C/C=C\CCN(C3=O)[C@@H](Cc3ccc(C(F)F)cc3)C(=O)N(C)CC(=O)N[C@@H](CCc3ccc(Cl)c(Cl)c3)C(=O)N2C1 [PP2827]
- NRAS/KRAS (ratio of KD value with respect to GDP-bound NRAS wild-type protein to KD value with respect to KRAS) ([1]; KD ratio NRAS/KRAS, class symbols): A (a compound having 10 or more and less than 20 is denoted as A)
- HRAS/KRAS (ratio of KD value with respect to GDP-bound HRAS wild-type protein to KD value with respect to KRAS) ([2]; KD ratio HRAS/KRAS, class symbols): B (a compound having 3 or more and less than 10 is denoted as B)

SMILES: CCCN1C(=O)CN(C)C(=O)[C@@H]2CCN2C(=O)[C@H]([C@@H](C)CC)NC(=O)[C@H](CC(C)C)N(C)C(=O)C[C@@H](C(=O)N2CCOCC2)N(C)C(=O)[C@H](C2CCCC2)N(C)C(=O)C2(CCC2)NC(=O)[C@@H]2CC(F)(F)CN2C(=O)[C@H](CCc2ccc(C(F)(F)F)c(Cl)c2)NC(=O)CN(C)C(=O)[C@@H]1Cc1ccc(C(F)(F)F)cc1 [PP0404] ([NMeL]I[Aze][Sar][NPrPhe(4-CF3)][Sar][hPhe(3-Cl-4-CF3)][Pro(4,4-F2)][Ac4c][NMeGly(cPent)][NMeD]-Morpholide; lactam N-11)
- NRAS/KRAS (ratio of KD for GDP-bound NRAS wild-type to KD for KRAS) ([1]; KD ratio NRAS/KRAS, SPR): B (a compound having 3 or more and less than 10 is denoted as B)
- HRAS/KRAS (ratio of KD for GDP-bound HRAS wild-type to KD for KRAS) ([2]; KD ratio HRAS/KRAS, SPR): C (A compound having a KD ratio of 0.1 or more and less than 3 is denoted as C)

SMILES: CC[C@H](C)[C@@H]1NC(=O)[C@H](COC)N(C)C(=O)C[C@@H](C(=O)N2CCOCC2)N(C)C(=O)[C@H](C2CCCC2)N(C)C(=O)C2(CCC2)NC(=O)[C@@H]2CC(F)(F)CN2C(=O)[C@H](CCc2cc(F)c(C(F)(F)F)c(F)c2)NC(=O)CN(C)C(=O)[C@H](Cc2ccc(C(F)(F)F)cc2)N2CCCCC[C@@H](C2=O)N(C)C(=O)CN(C)C1=O [PP0834]
- NRAS/KRAS (ratio of KD value with respect to NRAS to KD value with respect to KRAS) [1, 3]: A (a compound having 10 or more and less than 20 is denoted as A)
- HRAS/KRAS (ratio of KD value with respect to HRAS to KD value with respect to KRAS) [2, 4]: B (a compound having 3 or more and less than 10 is denoted as B)

SMILES: CCCN1C(=O)CN(CC)C(=O)CN(C)C(=O)[C@H]([C@@H](C)CC)NC(=O)[C@H](CC(C)C)N(C)C(=O)C[C@@H](C(=O)N2CCOCC2)N(C)C(=O)[C@H](C2CCCC2)N(C)C(=O)C2(CCCC2)NC(=O)[C@@H]2CCCN2C(=O)[C@H](CCc2ccc(C(F)(F)F)c(Cl)c2)NC(=O)CN(CC)C(=O)[C@@H]1Cc1ccc(C)cc1 [PP0069] ([NMeL]I[Sar][NEtG][NPrPhe(4-Me)][NEtG][hPhe(3-Cl-4-CF3)]P[Ac5c][NMeGly(cPent)][NMeD]-Morpholide; lactam N-11)
- NRAS/KRAS (ratio of KD for GDP-bound NRAS wild-type to KD for KRAS) ([1]; KD ratio NRAS/KRAS, SPR): C (A compound having a KD ratio of 0.1 or more and less than 3 is denoted as C)
- HRAS/KRAS (ratio of KD for GDP-bound HRAS wild-type to KD for KRAS) ([2]; KD ratio HRAS/KRAS, SPR): C (A compound having a KD ratio of 0.1 or more and less than 3 is denoted as C)

SMILES: CCCO[C@H](C)[C@@H]1NC(=O)[C@H](COCC)N(C)C(=O)C[C@@H](C(=O)N(C)CC)N(C)C(=O)[C@H](C2CCCC2)N(C)C(=O)C2(CC(C)(C)C2)NC(=O)[C@@H]2C[C@@H](OCC)CN2C(=O)[C@H](CCc2cc(F)c(C(F)(F)F)c(F)c2)NC(=O)CN(C)C(=O)[C@H](Cc2ccc(C)cc2)N2CC/C=C\C[C@@H](C2=O)N(C)C(=O)[C@@H]2CCCN2C1=O [PP2436]
- NRAS/KRAS (ratio of KD value with respect to NRAS to KD value with respect to KRAS) ([1]; SPR, GDP-bound NRAS wild-type vs GDP-bound KRAS wild-type): A (a compound having 10 or more and less than 20 is denoted as A)
- HRAS/KRAS (ratio of KD value with respect to HRAS to KD value with respect to KRAS) ([2]; SPR, GDP-bound HRAS wild-type vs GDP-bound KRAS wild-type): A (a compound having 10 or more and less than 20 is denoted as A)

SMILES: CCC[C@H]1C(=O)N[C@@H]([C@@H](C)CC)C(=O)N(C)CC(=O)N(C)[C@H]2C/C=C\CCN(C2=O)[C@@H](Cc2ccc(C(F)(F)F)cc2)C(=O)N(C)CC(=O)N[C@@H](CCc2cc(F)c(C(F)(F)F)c(F)c2)C(=O)N2C[C@H](OCC)C[C@H]2C(=O)NC2(CC(C)(C)C2)C(=O)N(C)[C@@H](C2CCCC2)C(=O)N(C)[C@H](C(=O)N(C)C)CC(=O)N1C [PP1645]
- NRAS/KRAS (ratio of KD value for NRAS to KD value for KRAS) [1, 3]: A (a compound having 10 or more and less than 20 is denoted as A)
- HRAS/KRAS (ratio of KD value for HRAS to KD value for KRAS) [2, 4]: A (a compound having 10 or more and less than 20 is denoted as A)
